From patent US7371877B2, “Glycerol ester derivative” (FUJIFILM Corporation, priority 2002, dated 2008)

What was measured:
[1] = J. Med. Chem., 25, 1500 (1982); cited from earlier work
[2] = system: vascular smooth muscle cells; experiment: Uptake amount of iodine atoms by vascular smooth muscle cells (mixed culture with macrophage); type: cell-based; details: liposome PC 50 nmol + PS 50 nmol + compound 75 nmol; cultured at 37° C. under 5% CO2 for 24 hours
Method: Dipalmitoyl-PC (Funakoshi, No. 1201-41-0225) and dipalmitoyl-PS (Funakoshi, No. 1201-42-0237) at the ratio shown below were dissolved in chloroform together with each of the iodine compounds of the present invention in an eggplant-shaped flask according to the method described in J. Med. Chem., 25 (12), 1500 (1982) to form a uniform solution. Then, the solvent was evaporated under reduced pressure to form a thin membrane on the bottom of the flask bottom. This thin membrane was dried in vacuum, then added with an appropriate amount of 0.9% physiological saline (Hikari Pharmaceutical, No. 512) and subjected to ultrasonication (No. 3542 probe type oscillator, Branson, 0.1 mW) for 5 minutes to obtain a uniform liposome dispersion. The diameters of the liposomes in the resulting dispersion were measured by using WBC analyzer (A-1042, Nihon Kohden). […] The liposome preparations mentioned below, which were produced by the above method, were each added to a mixed culture system of vascular smooth muscle cells and macrophage described in International Publication WO 01/82977. The cells were cultured at 37° C. under 5% CO2 for 24 hours, and the amounts of the iodine compounds taken up into the vascular smooth muscle cells were each quantified.
In the same manner as in Test Example 1, liposome preparations containing dipalmitoyl-PC (Funakoshi, No. 1201-41-0225) and dipalmitoyl-PS (Funakoshi, No. 1201-42-0237) at the ratio shown below were prepared. […] The liposome preparations produced by the above method were each added to a mixed culture system of vascular smooth muscle cells and macrophage described in International Publication WO 01/82977. The cells were cultured at 37° C. under 5% CO2 for 24 hours, and the amounts of the iodine compounds taken up into the vascular smooth muscle cells were each quantified.

ICR male mice = experiment: Toxicity test by continuous administration for three days in mice (MTD); type: in vivo
Method: Six-week old ICR male mice (Charles River Japan) were purchased, and after quarantine for 1 week, acclimatized in a clean animal cage (air-conditioning: HEPA filter of class 1000, room temperature: 20 to 24° C., humidity: 35 to 60%). Then, in order to obtain an MTD value, a liposome preparation was administered from the caudal vein. The liposome preparation was administered by using physiological saline (Hikari Pharmaceutical) or a glucose solution (Otsuka Pharmaceutical) as a solvent. On the basis of the MTD value obtained, the liposome preparation was administered from the caudal vein every three consecutive days in an amount corresponding to ½ of the MTD value (n=3). The symptoms were observed up to 6 hours after each administration, and autopsy was performed after completion of the administration to examine major organs. As a result, no abnormality was recognized. […]

Wistar rats = experiment: Neurotoxicity test in Wistar rats; type: in vivo; set-up: key to Neurotoxicity (+: present, −: absent): +: present; −: absent
Method: Six-week old male Wistar rats (Charles River Japan) were purchased, and after quarantine for 1 week, acclimatized in a clean animal cage (air-conditioning: HEPA filter of class 1000, room temperature: 20 to 24° C., humidity: 35 to 60%). […]. The liposome preparation was administered by using physiological saline (Hikari Pharmaceutical) or a glucose solution (Otsuka Pharmaceutical) as a solvent.
In the same manner as in Test Example 4, the neurotoxicity test using a Wistar rat was performed.

S9 degradation test = type: in vitro ADME, rats; details: rat liver S9 Mix, 5 μg/ml, 37° C., HPLC
Method: Six-week old male SD rats (Charles River Japan) were purchased and acclimatized for 1 week. After the acclimatization for 1 week, the rats were weighed and bled by decapitation. The liver was extracted and washed three times with chilled 0.15 M KCl. After the washing, wet weight of the liver was determined, and the liver was added with the three-times weight of chilled 0.15 M KCl and placed in a homogenizer. The liver was homogenized, and the homogenate was centrifuged with cooling at 9000 g for 10 minutes. The supernatant obtained was designated S9 and stored below −80° C.
The stored S9 was thawed in running water. The thawed S9 (0.1 ml) was added with 0.4 M MgCl2 (0.02 ml), 1.65 M KCl (0.02 ml) and 0.2 M Na phosphate buffer (pH 7.4, 0.5 ml), added with glucose-6-phosphate (Oriental Yeast), NADPH (Oriental Yeast) and NADH (Oriental Yeast) so as to give a concentration of 4 μM, and added with distilled water to give a total volume of 1 ml (this solution is referred to as “S9 Mix”). S9 Mix (0.1 ml) was added with a test substance so as to give a concentration of 5 μg/ml and shaken at 37° C. under reciprocal movement. The weight of the test substance (unchanged substance) with passage of time in the S9 Mix was measured by HPLC. The test substance was dissolved in dimethyl sulfoxide (Wako Pure Chemical Industry) beforehand. The results are shown as percentage values of the amount of the unchanged substance after 30 minutes based on the amount of the unchanged substance immediately after the addition to S9 Mix, which is taken as 100%. […]

[3] = system: arteriosclerotic lesions in rat aortas; experiment: X-ray radiography of rat arteriosclerotic lesion; type: in vivo; details: liposome preparation, 200 mg/kg from the cervical vein
Method: According to the method described in Invest. Radiol., 18, 275 (1985), arteriosclerotic lesions were formed in rat aortas. The liposome preparation of 1A-4-1 prepared above was carefully administered to the rats with the formed arteriosclerotic lesions were formed from the cervical vein in an amount of 200 mg/kg.
In the same manner as in Test Example 2, the liposome preparation of 1B-1-3 prepared above was carefully administered from the cervical vein to the rats with the formed arteriosclerotic lesions in an amount of 200 mg/kg.

[4] = liposome preparation administered from the caudal vein, ICR male mice
[5] = liposome preparation from the caudal vein, 1/2 of the MTD value, after pentobarbital, observed up to 4 hours

Compound	MTD (ICR male mice; [4]) [mg/kg]	amount of the unchanged substance after 30 minutes based on the amount immediately after the addition to S9 Mix (100%) (S9 degradation test)	other results
CCC(Cc1c(I)cc(I)c(N)c1I)C(=O)OC1CCC2(C)C(=CCC3C2CCC2(C)C(C(C)CCCC(C)C)CCC32)C1 (stereo not shown) [Cholesterol iopanoate]			Accumulation in the liver [1]: known to accumulate in the liver of a living body
O=C(CCCCCCCCCCOc1c(I)cc(I)cc1I)OCC(COC(=O)CCCCCCCCCCOc1c(I)cc(I)cc1I)OC(=O)CN1CCOCC1 [Compound 1A-1-3]	800	1A-1-3: 63%	Uptake amount [2]: 49.8 × 10^−3 nmol/μg protein; Neurotoxicity (+: present, −: absent) (Wistar rats; rat, in vivo): (−)
O=C(CCCCCCCCCCOc1c(I)cc(I)cc1I)OCC(COC(=O)CCCCCCCCCCOc1c(I)cc(I)cc1I)OC(=O)CCN1CCOCC1 [Compound 1A-3-1]		1A-3-1: 58%	
O=C(CCCCCCCCCCOc1c(I)cc(I)cc1I)OCC(COC(=O)CCCCCCCCCCOc1c(I)cc(I)cc1I)OC(=O)CCCN1CCOCC1 [Compound 1A-3-2]	800	1A-3-2: 60%	
O=C(CCCCCCCCCCOc1c(I)cc(I)cc1I)OCC(COC(=O)CCCCCCCCCCOc1c(I)cc(I)cc1I)OC(=O)CCCCN1CCOCC1 [Compound 1A-3-3]	1000	1A-3-3: 64%	Neurotoxicity (+: present, −: absent) (Wistar rats; rat, in vivo): (−)
O=C(CCCCCCCCCCOc1c(I)cc(I)cc1I)OCC(COC(=O)CCCCCCCCCCOc1c(I)cc(I)cc1I)OC(=O)CCCCCN1CCOCC1 [Compound 1A-3-4]	1000	1A-3-4: 63%	
O=C(CCCCCCCCCCOc1c(I)cc(I)cc1I)OCC(COC(=O)CCCCCCCCCCOc1c(I)cc(I)cc1I)OC(=O)CCC(=O)N1CCOCC1 [Compound 1A-4-1]	1000	1A-4-1: 59%	Uptake amount [2]: 31.4 × 10^−3 nmol/μg protein; X-ray radiography images of arteriosclerotic lesions ([3]; ten minutes after the administration): clearly contrasted images of the arteriosclerotic lesions were obtained; Neurotoxicity (+: present, −: absent) (Wistar rats; rat, in vivo): (−)
NC(=O)CCC(=O)OC(COC(=O)CCCCCCCCCCOc1c(I)cc(I)cc1I)COC(=O)CCCCCCCCCCOc1c(I)cc(I)cc1I [Compound 1A-4-2]		1A-4-2: 10%	
CN(C)C(=O)CCC(=O)OC(COC(=O)CCCCCCCCCCOc1c(I)cc(I)cc1I)COC(=O)CCCCCCCCCCOc1c(I)cc(I)cc1I [Compound 1A-4-3]		1A-4-3: 5%	
O=C(O)CCC(=O)OC(COC(=O)CCCCCCCCCCOc1c(I)cc(I)cc1I)COC(=O)CCCCCCCCCCOc1c(I)cc(I)cc1I [Compound 1A-4-4]		1A-4-4: 24%	MTD (ICR male mice; mouse, in vivo): 800 mg/kg; Neurotoxicity (+: present, −: absent) (Wistar rats; [5]): (−)
CCOCCOCCOCCOC(=O)CCC(=O)OC(COC(=O)CCCCCCCCCCOc1c(I)cc(I)cc1I)COC(=O)CCCCCCCCCCOc1c(I)cc(I)cc1I [Compound 1A-4-5]		1A-4-5: 38%	MTD (ICR male mice; mouse, in vivo): 800 mg/kg; Neurotoxicity (+: present, −: absent) (Wistar rats; [5]): (−)
O=C(CCCCCCCCCCOc1c(I)cc(I)cc1I)OCC(COC(=O)CCCCCCCCCCOc1c(I)cc(I)cc1I)OCC(=O)N1CCOCC1 [Compound 1A-5-1]	800	1A-5-1: 9%	Neurotoxicity (+: present, −: absent) (Wistar rats; rat, in vivo): (−)
NC(=O)COC(COC(=O)CCCCCCCCCCOc1c(I)cc(I)cc1I)COC(=O)CCCCCCCCCCOc1c(I)cc(I)cc1I [Compound 1A-5-2]		1A-5-2: 60%	
CN(C)C(=O)COC(COC(=O)CCCCCCCCCCOc1c(I)cc(I)cc1I)COC(=O)CCCCCCCCCCOc1c(I)cc(I)cc1I [Compound 1A-5-3]		1A-5-3: 52%	
O=C(O)COC(COC(=O)CCCCCCCCCCOc1c(I)cc(I)cc1I)COC(=O)CCCCCCCCCCOc1c(I)cc(I)cc1I [Compound 1A-5-4]		1A-5-4: 20%	MTD (ICR male mice; mouse, in vivo): 800 mg/kg; Neurotoxicity (+: present, −: absent) (Wistar rats; [5]): (−)
CN(C)CC(=O)OC(COC(=O)CCCCCCCCCCOc1c(I)cc(I)cc1I)COC(=O)CCCCCCCCCCOc1c(I)cc(I)cc1I [Compound 1A-6-3]		1A-6-3: 60%	
O=C(CCCCCCCCCCOc1c(I)cc(I)cc1I)OCC(COC(=O)CCCCCCCCCCOc1c(I)cc(I)cc1I)OC(=O)COC(CO)CO [Compound 1A-6-9]	800	1A-6-9: 13%	
CCOCCOCCOCCOC(COC(=O)CCCCCCCCCCOc1c(I)cc(I)cc1I)COC(=O)CCCCCCCCCCOc1c(I)cc(I)cc1I [Compound 1A-7-3]		1A-7-3: 5%	Uptake amount [2]: 41.8 × 10^−3 nmol/μg protein
O=C(CCCCCCCCCCOc1c(I)cc(I)cc1I)OCC(COC(=O)CCCCCCCCCCOc1c(I)cc(I)cc1I)OCCO [Compound 1A-7-5]		1A-7-5: 11%	Uptake amount [2]: 36.1 × 10^−3 nmol/μg protein
C[N+](C)(C)CCOP(=O)([O-])OC(COC(=O)CCCCCCCCCCOc1c(I)cc(I)cc1I)COC(=O)CCCCCCCCCCOc1c(I)cc(I)cc1I [Compound 1B-1-3]	2000	1B-1-3: 4%	Uptake amount [2]: 59.8 × 10^−3 nmol/μg protein; X-ray radiography images of arteriosclerotic lesions ([3]; one minute after the administration): clearly contrasted images of arteriosclerotic lesions were obtained; Neurotoxicity (Wistar rats; rat, in vivo): no neurotoxicity was observed
